How the values were obtained:
[1] = test system: yeast t-RNA; assay: RNase activity on yeast t-RNA (OD 260 nm); type: biochemical; conditions: relative to angiogenin; 37° C., 2 hours
Procedure: 50 μl of sample containing a fusion protein was mixed with 50 μl of yeast t-RNA mixture containing reaction buffer composed of 120 mM HEPES, 120 mM NaCl, 0.004% BSA and incubated at 37° C. for 2 hours. Reaction was interrupted by an equal volume of 6% perchloric acid. Subsequently, the reaction mixture was centrifuged for 10 minutes and used to measure optical density at 260 nm from which the standard curve was made to measure RNase activity. Activities of the samples were compared with that of angiogenin(see: Table 2).

[2] = test system: CHO-K1 cells; assay: Cytotoxicity to CHO-K1 cells that do not express hEGF receptors (MTT); type: cell-based; conditions: CHO-K1, serum-free media, 2 days
Procedure: Cells were cultured on 96 well plates at 1×10^4 cells/ml for 1 day, and received serum-free media containing control and samples, and incubated for additional 2 days. Survival rate of the cells was measured with MTT, in an analogous manner as in Example 15(see: Table 4).

[3] = test system: MCF-7; assay: Cytotoxicity to breast cancer cells in vitro (MTT); type: cell-based, human; conditions: MCF-7, serum-free media, 2 days
Procedure: In order to evaluate activity of the fusion protein in vitro, breast cancer cell line, MCF-7(ATCC-HTB22), was cultured in DMEM supplemented with 10% FBS. Cells were plated on 96-well plates at 1×10^4 cells/ml and cultured for 1 day. Medium was replaced with serum free-media containing control, sample, and 5-fluorouracil(for comparison) and cultured for 2 days, survival rate was measured with MTT(3-([…]-2-yl)-2,5-diphenyltetrazolium bromide), and IC50 was calculated(see: Table 3).

[4] = test system: A431 tumor; assay: Anticancer effect in vivo, A431 tumor transplanted in nude mouse
Procedure: To evaluate anticancer activity of the fusion protein in vivo, A431 cultured cells were transferred subcutaneously to the abdominal region of an immunodeficient nude mouse(20-25 g body weight) at 2×10^7 in 0.2 ml. When the proper size of tumor was formed, tumor was removed from the mouse under sterilization condition and cut into pieces of 2-3 mm to be transferred subcutaneously with a troca. When the size of the transplanted tumor of the nude mouse reached […], mice were divided into 5 groups(6 mice in one group) for i.v. injection. 100 μg/kg body weight of the fusion protein and angiogenin were administered by i.v. injection every 3 day for 4 weeks. After final administration, the area of the tumor-surface was measured by vernier calipers.
The tumor cells were excised after 4 weeks and measured for the weight(see: Table 5).

Compound	RNase Activity(%) [1]	IC50 [2] [nM]	IC50 [3] [nM]	Mean tumor-surface B (after 4 weeks) ([4]; 100 μg/kg i.v. every 3 day for 4 weeks, after 4 weeks) [mm^2]	Mean tumor-surface A (on the day of administration) ([4]; 100 μg/kg i.v. every 3 day for 4 weeks, day of administration) [mm^2]	Mean tumor-surface B/A ([4]; ratio of surface after 4 weeks to day of administration)	Mean tumor weight ([4]; tumor excised after 4 weeks, 100 μg/kg i.v. every 3 day) [g]	IC50 ([2]; Cricetulus griseus, 48 h) [nM]
Angiogenin: human angiogenin, 14.4 kD protein consisting of 123 amino acids, ribonuclease superfamily, SEQ ID No:2	100%	> 100	> 100	477.2 ± 6.7	79.3 ± 2.1	6.0	5.0 ± 0.7	–
hEGF-angiogenin: fusion protein of EGF-angiogenin expressed from pTE4083, SEQ ID No:19	65-90%	–	–	–	–	–	–	–
O=c1[nH]cc(F)c(=O)[nH]1 [5-fluorouracil, reference compound]	–	–	–	–	–	–	–	49.5

Source: patent US6541619B1 (Daewoong Pharmaceutical Co., Ltd., priority 1997, dated 2003)
